Measured values as given in US8357798B2, “Process for preparing N-alkylated hydroxypyrimidinone compounds” (Merck Sharp & Dohme Corp., priority 2004, dated 2013).
Structures can show the parent of a compound that is named as a salt.

Key:
solubility in water = type: physicochemical
[1] = hygroscopicity (vapor sorption analysis); type: physicochemical; conditions: for weight when equilibrated back down to 5% RH: 5% RH after 95% RH; for weight increase when equilibrated at 95% RH: 95% RH at 25° C.
Method: Hygroscopicity data was obtained on a VTI Symmetrical Vapor Sorption Analyzer Model SGA-1. Data was collected at room temperature from 5-95% relative humidity and back, 5% relative humidity change per step. Equilibrium conditions were 0.01 weight percent change in 5 minutes with a maximum equilibration time of 180 minutes.

HIV integrase = HIV integrase (Human immunodeficiency virus type 1 group M subtype B, UniProt P04585); experiment: integrase inhibition assay in which strand transfer is catalyzed by recombinant integrase; type: biochemical; conditions: assay of Example 193 of WO 02/30930
Excerpt: Compound A is an inhibitor of HIV integrase. […] The strand transfer assay is described in Example 193 of WO 02/30930.

[2] = system: acute HIV infection of T-lymphoid cells; experiment: assay for the inhibition of acute HIV infection of T-lymphoid cells; type: cell-based; conditions: in accordance with Vacca et al., PNAS 1994, 91: 4096-4100
[3] = listed as Form 1 Crystalline Potassium Salt of Compound A

## Cc1nnc(C(=O)NC(C)(C)c2nc(C(=O)NCc3ccc(F)cc3)c(O)c(=O)n2C)o1 [potassium salt of Compound A]
Solubility in water
  solubility in water: comparatively quite soluble
Solubility in water; relative to Compound A free base
  solubility in water compared to the free base: significantly more soluble

## Cc1nnc(C(=O)NC(C)(C)c2nc(C(=O)NCc3ccc(F)cc3)c(O)c(=O)n2C)o1 [listing 1 of 2 here]
[1]
  weight when equilibrated back down to 5% RH: returned to its dry weight
  weight increase when equilibrated at 95% RH: 1%

## Cc1nnc(C(=O)NC(C)(C)c2nc(C(=O)NCc3ccc(F)cc3)c(O)c(=O)n2C)o1 [Compound A, N-(4-fluorobenzyl)-5-hydroxy-1-methyl-2-(1-methyl-1-{[(5-methyl-1,3,4-oxadiazol-2-yl)carbonyl]amino}ethyl)-6-oxo-1,6-dihydropyrimidine-4-carboxamide]
HIV integrase
  inhibition of integrase strand transfer: potent inhibitor
[2]
  inhibition of acute HIV infection of T-lymphoid cells: active
Solubility in water
  solubility in water: limited

## Cc1nnc(C(=O)NC(C)(C)c2nc(C(=O)NCc3ccc(F)cc3)c(O)c(=O)n2C)o1 [listing 2 of 2 here]
[1]; [3]
  weight when equilibrated back down to 5% RH: returned back to approximately its dry weight
  weight increase when equilibrated at 95% RH: 1.8%
[1]; XRPD after 5-95% RH cycle
  phase by XRPD after the hygroscopicity experiment: had not changed phases
